Read-outs that look alike come from different tables or passages of the source. Residues, ends and D or L forms follow the SMILES beside them.
What was measured:
[1] = system: Trypsin, Chymotrypsin and Proteinase K; experiment: Proteolytic stability (incubation with proteases or in Human Serum); assay type: in vitro ADME
Description: Proteolytic stability studies were performed by peptides incubation with proteases (such as Trypsin, Chymotrypsin and Proteinase K) or in Human Serum as described earlier (See Karoyan et al. J. Med. Chem. 2016).

CD47 = target: T1, CD47 (Homo sapiens, UniProt Q08722); experiment: Binding affinity by Microscale Thermophoresis on labeled Jurkat and/or MEC-1 cell membrane preparation
T1 construct: MEC-1 or Jurkat membrane preparation is labeled using the Nanotemper NT-647 labeling kit; endogenous in cells; host or cells: Jurkat and/or MEC-1 cell membrane preparation
Excerpt: FIG. 5 and FIG. 6. Binding curve measured by MST. The measurement method is based on the directed movement of molecules along a temperature gradient, an effect termed “thermophoresis”. A local temperature difference ΔT leads to a local change in molecule concentration (depletion or enrichment), quantified by the Soret coefficient ST: chot/ccold=exp(−STΔT). Jurkat or Mec-1 cell membrane preparations are labeled using the Nanotemper NT-647 labeling kit as described elsewhere.xliv The labeled preparation is eluted with PBS and stored at 4° C. A stock solution of each peptide is prepared in DMSO (5 mM) and then diluted with PBS. For the peptides evaluated by MST, we have kept the concentration of the NT.115-labeled membrane constant, while the concentration of the ligand (peptide) was varied. […]
Binding affinity measurements. The binding affinities of peptides, here PKT16, PKTD1, PKTD10, PKTD10-1, PKTD10-3, PKTD10-5, PKDT10-7 and PKTD10-8 for a membrane preparation from Jurkat and/or MEC-1 cells were measured by Microscale Thermophoresis^xlv on a Monolith NT115-pico system (Nanotemper Technologies, Munich, Germany).
Binding curve measured by MST. […] A local temperature difference ΔT leads to a local change in molecule concentration (depletion or enrichment), quantified by the Soret coefficient ST: chot/ccold=exp(−STΔT). […]

HCT-116 cells = assay type: cell-based, human; conditions: 2 h; for Early Apoptosis, Mean (%) / Late apoptosis, Mean (%): HCT-116 cells; for Viable, Mean (%): human
Description: 2.2.2. Cell Death Analysis by Flow Cytometry
To detect possible apoptotic processes, cells were seeded in 35 mm dishes and cultured in media containing each tested cyclic peptide for 2 hours following procedure A or B.
Procedure B: Peptides were incubated for 2 hours on HCT-116 cells. Superkiller Trail (ALX-201-115C-010) was used as a positive pro-apoptotic control. Cells were analyzed by cytofluorometry using FITC Annexin V apoptosis detection kit with 7-AAD from BIOLEGEND (BLE640922).

[2] = system: MCF-7, HCT-116, BxPC3 and A549 cancer cells; experiment: Cell viability and proliferation of tumor cells (cytotoxic assay and direct cell counting); assay type: cell-based, human; conditions: 2 hours, 10 to 50 μM peptide concentration
Description: The effects of several cyclic peptides of the invention on the proliferation of tumor cells were evaluated on 5 cell lines (MCF-7, human breast cancer cells; HCT-116, human colon cancer cells; BxPC3, human pancreas cancer cells and A549, human lung cancer cells) by cytotoxic assay and by counting directly the number of cells.
Those cyclic peptides were dissolved in DMSO at the following concentrations: 0, 5, 10, 25, 50 and 100 μM.
Culture media used for these assays are: EMEM=10% SVF for MCF-7 and Wi38; RPMI […] SVF for HCT-116 and BxPC3 and F-12K=10% SVF for A549.
500 cells were seeded in 96-well plates, incubated at 37° C. for 24 hours, and treated by the cyclic peptides at the different concentrations and controls for 2 h.

[3] = system: B-chronic lymphocytic leukemia (CLL) primary cells; conditions: cited from earlier work; for induction of caspase-independent PCD: soluble peptide, CLL primary cells
[4] = peptide concentration 12.5 (μM)

T1 sequence (Q08722 19-323): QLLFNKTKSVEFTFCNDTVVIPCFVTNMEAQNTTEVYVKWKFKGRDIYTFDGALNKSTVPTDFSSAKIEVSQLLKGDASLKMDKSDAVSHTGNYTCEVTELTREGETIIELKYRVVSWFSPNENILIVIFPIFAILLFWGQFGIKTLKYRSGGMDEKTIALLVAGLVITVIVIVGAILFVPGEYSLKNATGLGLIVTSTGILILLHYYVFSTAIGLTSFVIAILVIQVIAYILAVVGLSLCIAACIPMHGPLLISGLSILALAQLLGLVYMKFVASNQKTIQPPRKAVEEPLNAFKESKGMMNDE

In the case of `CSCC[C@@H]1NC(=O)[C@H](C(C)C)NC(=O)[C@H](C(C)C)NC(=O)[C@H](Cc2ccc(O)cc2)NC(=O)[C@H](Cc2ccccc2)NC(=O)[C@H](C(C)C)NC(=O)[C@H](C(C)C)NC(=O)[C@H](CCCCN)NC(=O)[C@H](C(C)C)NC(=O)[C@H](CO)NC(=O)[C@H](CC(C)C)NC(=O)[C@@H]2CCCN2C(=O)[C@H]2CCCN2C(=O)[C@H](Cc2c[nH]c3ccccc23)NC1=O` [PKD8, —F—Y—V—V—M—W—p—P—L—S—V—K—V—V—] (HELM PEPTIDE1{L.S.V.K.V.V.F.Y.V.V.M.W.[dP].P}$PEPTIDE1,PEPTIDE1,1:R1-14:R2$$$V2.0), the stability toward proteases [1] was “fully stable”.

With `CCCC[C@@H]1NC(=O)[C@H](C(C)C)NC(=O)[C@H](C(C)C)NC(=O)[C@H](Cc2ccc(O)cc2)NC(=O)[C@H](Cc2ccccc2)NC(=O)[C@H](C(C)C)NC(=O)[C@H](C(C)C)NC(=O)[C@H](CCCCN)NC(=O)[C@H](C(C)C)NC(=O)[C@H](CO)NC(=O)[C@H](CC(C)C)NC(=O)[C@@H]2CCCN2C(=O)[C@H]2CCCN2C(=O)[C@H](Cc2c[nH]c3ccccc23)NC1=O` [PKD9, —F—Y—V—V—X—W—p—P—L—S—V—K—V—V— X = NLe] (HELM PEPTIDE1{L.S.V.K.V.V.F.Y.V.V.[Nle].W.[dP].P}$PEPTIDE1,PEPTIDE1,1:R1-14:R2$$$V2.0) the stability toward proteases [1] was “fully stable”.

For `CC(C)C[C@@H]1NC(=O)[C@@H]2CCCN2C(=O)[C@H]2CCCN2C(=O)[C@H](Cc2c[nH]c3ccccc23)NC(=O)[C@H](CCCCN)NC(=O)[C@H](C(C)C)NC(=O)[C@H](C(C)C)NC(=O)[C@H](Cc2ccc(O)cc2)NC(=O)[C@H](Cc2ccccc2)NC(=O)[C@H](C(C)C)NC(=O)[C@H](C(C)C)NC(=O)[C@H](CCCCN)NC(=O)[C@H](C(C)C)NC(=O)[C@H](CO)NC1=O` [PKD10, —F—Y—V—V—K—W—p—P—L—S—V—K—V—V—] (HELM PEPTIDE1{L.S.V.K.V.V.F.Y.V.V.K.W.[dP].P}$PEPTIDE1,PEPTIDE1,1:R1-14:R2$$$V2.0), the stability toward proteases [1] was “fully stable”.

In the case of `CCCC[C@H](NC(=O)[C@@H](NC(=O)[C@@H](NC(=O)[C@H](Cc1ccc(O)cc1)NC(=O)[C@H](Cc1ccccc1)NC(=O)[C@H](CCCNC(=N)N)N(C)C(=O)[C@H](N)CCCCN)C(C)C)C(C)C)C(=O)N[C@@H](Cc1c[nH]c2ccccc12)C(=O)N[C@@H](CCCCN)C(=O)N[C@H](CCCCN)C(=O)O` [PKT16, (D)Lys-(N-Me)Arg-Phe-Tyr-Val-Val-Nle-Trp-Lys-(D)Lys] (HELM PEPTIDE1{[dK].[meR].F.Y.V.V.[Nle].W.K.[dK]}$$$$V2.0; N-terminus and C-terminus assumed), the “binding affinities (Kd), order of magnitude in words” value (CD47) was “micromolar range”.

In the case of `CSCC[C@@H]1NC(=O)[C@H](C(C)C)NC(=O)[C@H](C(C)C)NC(=O)[C@H](Cc2ccc(O)cc2)NC(=O)[C@H](Cc2ccccc2)NC(=O)[C@H](CCCNC(=N)N)NC(=O)[C@H](CO)NC(=O)[C@H](CO)NC(=O)[C@H](CC(N)=O)NC(=O)[C@H](C(C)C)NC(=O)[C@H](C(C)C)NC(=O)[C@H](CCCCN)NC(=O)[C@H](C)NC(=O)[C@H](CO)NC(=O)[C@H](CC(C)C)NC(=O)CNC(=O)[C@@H]2CCCN2C(=O)[C@H]2CCCN2C(=O)[C@H](CCCCN)NC(=O)[C@H](Cc2c[nH]c3ccccc23)NC1=O` [PKTD10-4, —S—R—F—Y—V—V—M—W—K—p—P—G—L—S—A—K—V—V—N—S—] (HELM PEPTIDE1{S.R.F.Y.V.V.M.W.K.[dP].P.G.L.S.A.K.V.V.N.S}$PEPTIDE1,PEPTIDE1,1:R1-20:R2$$$V2.0), the “Early Apoptosis, Mean (%)” value (HCT-116 cells; [4]) was 9.27%, the “Late apoptosis, Mean (%)” value (HCT-116 cells; [4]) was 4.39% and the “Early Apoptosis, Mean (%)” value (HCT-116 cells; peptide concentration 25 (μM)) was 11.91%. For the same molecule, the “Late apoptosis, Mean (%)” value (HCT-116 cells; peptide concentration 25 (μM)) was 5.54%, the “Early Apoptosis, Mean (%)” value (HCT-116 cells; peptide concentration 50 (μM)) was 15.68% and the “Late apoptosis, Mean (%)” value (HCT-116 cells; peptide concentration 50 (μM)) was 7.53%. The “Viable, Mean (%)” value (HCT-116 cells; 12.5 μM) was 85.90%, the “Viable, Mean (%)” value (HCT-116 cells; 25 μM) was 82.41% and the “Viable, Mean (%)” value (HCT-116 cells; 50 μM) was 76.52%. For the same molecule, the “viability in all cell strains” value [2] was “dose-dependent viability decrease”.

With `CSCC[C@@H]1NC(=O)[C@H](C(C)C)NC(=O)[C@H](C(C)C)NC(=O)[C@H](Cc2ccc(O)cc2)NC(=O)[C@H](Cc2ccccc2)NC(=O)[C@H](CCCNC(=N)N)NC(=O)[C@H](CC(N)=O)NC(=O)[C@H](C(C)C)NC(=O)[C@H](C(C)C)NC(=O)[C@H](CCCCN)NC(=O)[C@H](C(C)C)NC(=O)[C@H](CO)NC(=O)[C@H](CC(C)C)NC(=O)CNC(=O)[C@H](CO)NC(=O)[C@@H]2CCCN2C(=O)[C@H]2CCCN2C(=O)[C@H](CCC(N)=O)NC(=O)[C@H](CCCCN)NC(=O)[C@H](Cc2c[nH]c3ccccc23)NC1=O` [PKTD12, —R—F—Y—V—V—M—W—K—Q—p—P—S—G—L—S—V—K—V—V—N—] (HELM PEPTIDE1{R.F.Y.V.V.M.W.K.Q.[dP].P.S.G.L.S.V.K.V.V.N}$PEPTIDE1,PEPTIDE1,1:R1-20:R2$$$V2.0) the “Early Apoptosis, Mean (%)” value (HCT-116 cells; [4]) was 5.78%, the “Late apoptosis, Mean (%)” value (HCT-116 cells; [4]) was 3.11% and the “Early Apoptosis, Mean (%)” value (HCT-116 cells; peptide concentration 25 (μM)) was 7.15%. For the same molecule, the “Late apoptosis, Mean (%)” value (HCT-116 cells; peptide concentration 25 (μM)) was 3.26%, the “Early Apoptosis, Mean (%)” value (HCT-116 cells; peptide concentration 50 (μM)) was 19.16% and the “Late apoptosis, Mean (%)” value (HCT-116 cells; peptide concentration 50 (μM)) was 6.80%. For the same molecule, the “Viable, Mean (%)” value (HCT-116 cells; 12.5 μM) was 90.87%, the “Viable, Mean (%)” value (HCT-116 cells; 25 μM) was 89.42% and the “Viable, Mean (%)” value (HCT-116 cells; 50 μM) was 73.78%. For the same molecule, the “viability in all cell strains” value [2] was “dose-dependent viability decrease”.

For “K-RFYVVMWK-K (KRFYVVMWKK; listed as Homo sapiens) [Peptide 4N1K, soluble decapeptide that mimics the C-terminal domain of TSP-1]”, the “selective elimination of leukemic B-cells versus healthy B-lymphocytes or resting normal B-cells from CLL patients” value ([3]; CD47 ligation) is given as “specifically eliminates leukemic B-cells” and the “induction of caspase-independent PCD” value [3] is given as “induces caspase-independent PCD”.

In the case of “KRFYGGMWKK [Peptide 4NGG, linear negative control peptide, 4N1K mutated in two amino acids]”, the “induction of caspase-independent PCD” value [3] is given as “unable to induce PCD”.
